{"source": "patent US20250002970A1", "about": "“A[…] LABELING FOR DETECTION OF BACTERIAL VIABILITY, GROWTH AND ANTIBIOTIC SUSCEPTIBILITY” (University of Massachusetts, priority 2021, published 2025)", "test_system": "S. aureus", "experiment": "Sandwich ELISA readout of growth-dependent metabolic labeling (biotin-D-lysine probe incorporation) +/- antibiotic", "format": "cell-based, Staphylococcus aureus", "details": "S. aureus +/- vancomycin; FIG. 4", "description": "FIG. 4. ELISA can be used as a rapid readout for antibiotic susceptibility. S. aureus was incubated+/−antibiotic for 20 min then with cell envelope probe for an additional 10 min. Probe incorporation was quantitated by sandwich ELISA (absorbance, OD450).\nBacterial strains and growth conditions. Staphylococcus aureus was grown in brain heart infusion broth (BHI; BD BBL, Sparks, MD.). Escherichia coli K-12 was grown in Luria Bertani broth (LB; Apex Research Products, El Cajon, CA). All bacteria were initially grown by shaking at 37° C. overnight.\nCell wall labeling. Bacterial cultures were back diluted in their respective media and grown at 37° C. until the mid-log phase (OD600=0.3 for S. aureus; OD600=0.35 for E. coli); for concentration dependency experiments the starting OD600 for each sample varied. Where appropriate, cultures were treated with freshly prepared ampicillin (100 μg/mL; Fisher Bioreagents, Fair Lawn, NJ) or vancomycin (100 μg/mL; Alfa Aesar, Ward Hill, MA) and incubated on a shaker at 37° C. for 90 minutes.\nGrowing bacteria were labeled with biotin D-lysine (Chem-Impex International, Wood Dale, IL; reagent was deprotected first). Unless otherwise indicated, they were labeled with 1 mM biotin-D-lysine shaking at 37° C. for 20 (S. aureus) or 30 (E. coli) minutes. […]\nELISA experiment. […] The absorbance was measured at 450 nm with a BioTek Plate Reader.", "data": [{"smiles": "CN[C@H](CC(C)C)C(=O)N[C@H]1C(=O)N[C@@H](CC(N)=O)C(=O)N[C@H]2C(=O)N[C@H]3C(=O)N[C@H](C(=O)N[C@H](C(=O)O)c4cc(O)cc(O)c4-c4cc3ccc4O)[C@H](O)c3ccc(c(Cl)c3)Oc3cc2cc(c3O[C@@H]2O[C@H](CO)[C@@H](O)[C@H](O)[C@H]2O[C@H]2C[C@](C)(N)[C@H](O)[C@H](C)O2)Oc2ccc(cc2Cl)[C@H]1O", "note": "[vancomycin]", "values": [{"measurement": "ELISA readout of probe incorporation (absorbance, OD450) with versus without antibiotic", "result": "can discriminate between S. aureus+/−vancomycin"}]}]}
